Ki data for one molecule are collected here from article PMC7140460, “Fluorinated Galactoses Inhibit Galactose-1-Phosphate Uridyltransferase and Metabolically Induce Galactosemia-like Phenotypes in HEK-293 Cells” (Cells, 2020).

The target of the assay is T1, recombinant hGALT (human galactose-1-phosphate uridyltransferase) (Homo sapiens, UniProt P07902).
T1 construct: gene GALT; synthetic gene in pET-15b (NdeI-BamHI, insert 1149 bp), His-tagged, E. coli BL21(DE3)-RIPL, Ni-NTA purified; tag removal not mentioned
Description: coupled PGM/G6PDH assay, NADPH absorbance at […] nm. It is filed as biochemical.

T1 sequence (P07902 whole entry): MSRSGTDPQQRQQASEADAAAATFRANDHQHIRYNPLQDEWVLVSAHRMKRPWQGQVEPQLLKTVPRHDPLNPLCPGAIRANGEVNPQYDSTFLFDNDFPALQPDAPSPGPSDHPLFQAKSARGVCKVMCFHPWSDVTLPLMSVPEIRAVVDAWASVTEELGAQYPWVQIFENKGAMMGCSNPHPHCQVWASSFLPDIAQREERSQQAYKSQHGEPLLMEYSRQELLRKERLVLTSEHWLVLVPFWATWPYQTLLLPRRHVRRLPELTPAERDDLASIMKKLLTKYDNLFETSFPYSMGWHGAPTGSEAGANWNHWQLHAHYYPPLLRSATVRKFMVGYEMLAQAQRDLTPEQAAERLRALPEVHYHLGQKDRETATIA

For orientation: Ki means a dissociation constant, usually derived from enzyme kinetics or from competition with a known ligand. Regarding `O=P(O)(O)O[C@H]1O[C@H](CO)[C@H](O)[C@H](O)[C@H]1F` [F-Gal-1-P, 2-fluoro-2-deoxy-galactose-1-phosphate], the Ki is 900 µM.
